The values that follow come from patent US20040213757A1, “Water soluble wortmannin derivatives” (Wyeth Holdings Corporation, priority 2003, published 2004).

Data set [1] relates to PI3K. As to conditions: cited from earlier work.
The subject of data set [2] is C3H mammary model. To be noted: cited from earlier work.
Data set [3] relates to H-157. The data set is described as follows: MTS cell proliferation assay, H-157. It counts as cell-based, human. As to conditions: three days of treatment. As to the method:
(§1) A549 (human non-small cell lung cancer) and H-157 cell lines were purchased from American Type Culture Collection (ATCC) (Rockville, Md.). Cells were cultured in RPMI Medium 1640 containing 10% fetal bovine serum (FBS) in a 37° C. incubator containing 5% CO2. All cell culture reagents were purchased from Gibco-BRL (Grand Island, N.Y.). Cells were plated in 96-well culture plates at about 3000 cells per well. One day following plating, water-soluble drug-polymer conjugates or the vehicle controls were added to cells. Proliferation assays were performed three days post initiation of treatment. For the non-radioactive cell proliferation assay, viable cell densities were determined by measuring metabolic conversion (by viable cells) of the dye MTS tatrazolium dye, a cell proliferation assay known by one of skill in the art (MTS assay), a previously established cell proliferation assay. The assay was performed using assay kit purchased from Promega Corp. (Madison, Wis.). The assay plates were incubated for 1-2 hours and the results were read in a 96-well format plate reader by measuring absorbance at 490 nm. For the thymidine incorporation assay, cells were labeled with [methyl-^3H]-thymidine (PerkinElmer Life Sciences, Boston, Mass.) for 5 hours. Cells were then harvested onto glass-fiber filter membranes and counted in a Wallac 1205 Betaplate liquid scintillation counter. Effect of each drug treatment was calculated as a percentage of control cell growth obtained from vehicle-treated cells grown in the same plate.
In general terms: Tetrazolium assays rely on reduction of a dye to a coloured formazan, in cell work by metabolically active cells.

Data set [4] deals with A549 (human non-small cell lung cancer). Description: MTS cell proliferation assay, A549. It counts as cell-based. To be noted: three days of treatment. As for the experimental part: as §1
Data set [5] has the same test system. Description: Thymidine incorporation proliferation assay, A549. It counts as cell-based. To be noted: three days of treatment. As for the experimental part:
as §1

Data set [6] deals with H-157. Description: Thymidine incorporation proliferation assay, H-157. As to conditions: three days of treatment. It counts as cell-based, human. As for the experimental part:
as §1
(In general: Uptake of a labelled nucleoside into DNA is a usual measure of proliferation.)

Data set [7] has as its system U87MG glioblastoma. To be noted: for Tumor Volume t/c, day 0 / Tumor Volume, mean, day 0 / Tumor Volume t/c, day 4 / Tumor Volume, mean, day 4 / Tumor Volume t/c, day 7 / Tumor Volume, mean, day 7 / Tumor Volume t/c, day 11 / Tumor Volume, mean, day 11 / Tumor Volume t/c, day 14 / Tumor Volume, mean, day 14 / Tumor Volume t/c, day 17 / Tumor Volume, mean, day 17: 0.7 mg/kg IV, d 0-4. As to the method:
A tumor cell line for brain tumor, PTEN (−/−) U87MG Glioma was implanted in mice. The mice were dosed IV on days 0-4.
In this experiment, U87MG glioma growing as subcutaneous xenografts in nude mice were staged on day 0, and dosed on days 0-4 at 0.15, 0.5, 1.5, 5 and 15 mg/kg/dose of a wortmannin derivative of this invention.
In the U87MG glioma study shown in FIG. 3, a wortmannin derivative of this invention was dosed IV on days 0-4. Paclitaxel was dosed IP on days 0 and 7. The MTD of paclitaxel is 60 mg/kg/dose following a weekly dosing schedule. Mice were treated with a wortmannin derivative of this invention at 1 mg/kg/dose, paclitaxel at 30 and 60 mg/kg/dose, or treated in combination with a wortmannin derivative of this invention at 1 mg/kg/dose and paclitaxel at 30 mg/kg/dose.
A wortmannin derivative at 1 mg/kg/dose and Peg-rapa at 0.1 mg/kg/dose were dosed IV either alone or in combination on days 0-4.
Balb/c nu/nu (athymic) mice were housed in accordance with Association for Accreditation of Laboratory Animal Care (AALAACC) standards for at least one week prior to their experimental usage. The animals were housed in microisolator cages and handled only in a laminar flow hood. All food and water was autoclaved. Mice were inoculated on the left flank with a volume of 200 μL using a 25-26 gauge sterile needle and syringe with a suspension of cells. The cells were resuspended in full growth media and delivered at 10 million cells per mouse. When the resulting tumors reached the appropriate size for staging, the mice were regrouped to produce equivalent sized groups with n=10. Once staged, the mice were dosed 0.2 cc iv with the water-soluble drug-polymer conjugate II and water-soluble drug-polymer conjugate IV resuspended in sterile, distilled water. Wortmannin and other non-pegylated water-soluble drug-polymer conjugate were prepared 10 mg/ml in Dimethyl sulfoxide (DMSO) and diluted with Phosphate Buffered Saline (PBS) right before injecting into the mouse. Treatment was administered as a daily×5 dosing schedule repeated every 2 weeks until the tumors reach 10% of the animal's weight. The growth of the solid tumor was monitored twice a week for the duration of the experiment. Tumor size was quantitated using sliding vernier calipers and the mass was calculated using the formula […]. Conversion from cubic mm to mg was made assuming unit density. Tumors were not allowed to grow larger than 15% of the mouse's weight, at which point the mouse was euthanized.

In brackets after ≈: the same amount, converted by molar mass. Some results are limits rather than exact numbers.

As to `COCC1OC(=O)c2coc3c2C1(C)C1=C(C3=O)C2CCC(O)C2(C)CC1OC(C)=O` (stereo not drawn) [17β-Hydroxywortmannin], the “increase in activity relative to wortmannin” value in data set [1] (PI3K) was 10 fold. Also, the IC50 in data set [1] was 0.5 nM. In addition, the “antitumor activity in the C3H mammary model” value in data set [2] (dose of 0.5 mg/kg) is “no inhibition”. In addition, the “toxicity in the C3H mammary model” value in data set [2] (dose of 1.0 mg/kg) is “toxicity”.
As to `COC[C@H]1OC(=O)c2coc3c2[C@@]1(C)C1=C(C3=O)[C@@H]2CCC(=O)[C@@]2(C)C[C@H]1OC(C)=O` [Wortmannin], the IC50 in data set [3] (Homo sapiens, NCI-H157, 72 h) amounted to 10 µg/mL (≈ 23.3 µM); in data set [4] (Homo sapiens, 72 h), 9 µg/mL (≈ 21 µM); in data set [5] (Homo sapiens, 72 h) it was 2.5 µg/mL (≈ 5.84 µM); in data set [6] (Homo sapiens, NCI-H157, 72 h), 3.2 µg/mL (≈ 7.47 µM).
Take `CC(=O)O[C@H]1C(=O)[C@@]2(C)[C@H]([C@H](OC(=O)c3ccccc3)[C@]3(O)C[C@H](OC(=O)[C@H](O)[C@@H](NC(=O)c4ccccc4)c4ccccc4)C(C)=C1C3(C)C)[C@]1(OC(C)=O)CO[C@@H]1C[C@@H]2O` [paclitaxel, reference compound]: the MTD of paclitaxel in data set [7] (mouse, in vivo, ip) was found to be 60 mg/kg/dose.
For “Conjugate (III) of M-PEG-SH 5000 and 17-dihydro-17-(1-iodoacetyl)-wortmannin [Water-soluble drug-polymer conjugate III]”, in data set [7], the “Tumor Volume t/c, day 0” value amounted to 1.01; the “Tumor Volume, mean, day 0” value was 137.4 mm^3; the “Tumor Volume t/c, day 4” value is 0.51; the “Tumor Volume, mean, day 4” value came out at 144.0 mm^3. Also, in data set [7], the “Tumor Volume t/c, day 7” value amounted to 0.37; the “Tumor Volume, mean, day 7” value worked out at 120.2 mm^3; the “Tumor Volume t/c, day 11” value was found to be 0.51; the “Tumor Volume, mean, day 11” value was determined as 300.2 mm^3. Further, in data set [7], the “Tumor Volume t/c, day 14” value turned out to be 0.50; the “Tumor Volume, mean, day 14” value was found to be 547.0 mm^3; the “Tumor Volume t/c, day 17” value is given as 0.44; the “Tumor Volume, mean, day 17” value is 926.8 mm^3. In addition, the “MTS Assay IC50, H-157” value in data set [3] is more than 3 µg/mL. In addition, in data set [4], the “MTS Assay IC50, A549” value was more than 3 µg/mL. In addition, the “Thymidine Assay IC50, A549” value in data set [5] was more than 3 µg/mL. For the same compound, in data set [6], the “Thymidine Assay IC50, H-157” value is more than 3 µg/mL.
For the compound “Conjugate (IV) of M-PEG-SH 5000 and 11-desacetyl-11-(1-iodoacetyl)-wortmannin [Water-soluble drug-polymer conjugate IV]”, in data set [7], the “Tumor Volume t/c, day 0” value worked out at 0.97; the “Tumor Volume, mean, day 0” value turned out to be 131.0 mm^3; the “Tumor Volume t/c, day 4” value was 0.58; the “Tumor Volume, mean, day 4” value is 165.0 mm^3. Besides, in data set [7], the “Tumor Volume t/c, day 7” value turned out to be 0.46; the “Tumor Volume, mean, day 7” value is 147.9 mm^3; the “Tumor Volume t/c, day 11” value amounted to 0.60; the “Tumor Volume, mean, day 11” value worked out at 349.0 mm^3. Moreover, in data set [7], the “Tumor Volume t/c, day 14” value is reported as 0.64; the “Tumor Volume, mean, day 14” value worked out at 707.4 mm^3; the “Tumor Volume t/c, day 17” value turned out to be 0.69; the “Tumor Volume, mean, day 17” value is given as 1454.9 mm^3. Besides, in data set [3], the “MTS Assay IC50, H-157” value was more than 3 µg/mL. In addition, the “MTS Assay IC50, A549” value in data set [4] is more than 3 µg/mL. The “Thymidine Assay IC50, A549” value in data set [5] was more than 3 µg/mL. Also, in data set [6], the “Thymidine Assay IC50, H-157” value is more than 3 µg/mL.

By IC50 is commonly meant the point on the concentration scale where inhibition reaches its midpoint.
